Measured values reported in PubChem BioAssay (NCI).
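How tested: cells in 96-well plates exposed to compound for 48 hours at five concentrations. At the GI50, growth is halved. TGI: total growth inhibition.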

What was measured:
Assay in all cases: NCI-60 cell line screen, 48 h
[1] = test system: COLO 205 colon
[2] = test system: HCC-2998 colon
[3] = test system: NCI-H460 lung
[4] = test system: RPMI-8226 leukemia
[5] = test system: RXF 393 renal
[6] = test system: SK-MEL-2 melanoma
[7] = test system: SN12C renal
[8] = test system: SR leukemia
[9] = test system: MDA-MB-231 breast
[10] = test system: MALME-3M melanoma

| Structure (SMILES) | TGI [1] [µM] | TGI [2] [µM] | TGI [3] [µM] | TGI [4] [µM] | TGI [5] [µM] | TGI [6] [µM] | TGI [7] [µM] | TGI [8] [µM] | TGI [9] [µM] | TGI [10] [µM] | GI50 [5] [µM] | GI50 [1] [µM] | GI50 [2] [µM] | GI50 [9] [µM] | GI50 [3] [µM] | GI50 [4] [µM] | GI50 [6] [µM] | GI50 [7] [µM] | GI50 [8] [µM] | GI50 [10] [µM] |
| --- | --- | --- | --- | --- | --- | --- | --- | --- | --- | --- | --- | --- | --- | --- | --- | --- | --- | --- | --- | --- |
| CN(C)CN(C)c1nc(N(C)C)nc(N(C)CN(C)C)n1 | 61.6 | > 100 | > 100 | 67.2 | 38.9 | 42.6 | > 100 | 58.3 | – | – | – | – | – | – | – | – | – | – | – | – |
| NN/C(=N\S(=O)(=O)c1ccc(S(=O)(=O)c2ccccc2)s1)Nc1ccc(Cl)cc1 | 46.2 | – | 65.7 | > 100 | 47.6 | 53.8 | 77.8 | 44 | > 100 | – | – | – | – | – | – | – | – | – | – | – |
| C(#Cc1ccccc1)SC1=C(c2ccccc2)S/C(=C(\SC#Cc2ccccc2)c2ccccc2)S1 | > 100 | > 100 | > 100 | – | – | – | > 100 | > 100 | > 100 | – | – | – | – | – | – | – | – | – | – | – |
| O=C(Cc1ccccc1)NN1C(=O)/C(=C\c2ccccc2O)SC1=Nc1ccccc1 | > 100 | > 100 | > 100 | > 100 | > 100 | > 100 | > 100 | – | > 100 | – | – | – | – | – | – | – | – | – | – | – |
| C=CCNC(=S)/N=C/C(C(=O)Nc1ccccc1C)=C(\C)O | > 100 | > 100 | > 100 | > 100 | > 100 | > 100 | > 100 | – | > 100 | – | – | – | – | – | – | – | – | – | – | – |
| COc1ccc(CNc2nc3ccccc3nc2C(=O)O)cc1 | > 100 | > 100 | > 100 | 68.2 | > 100 | > 100 | > 100 | > 100 | > 100 | – | – | – | – | – | – | – | – | – | – | – |
| CCn1c2ccccc2c2cc(Nc3cc(C)[nH]c(=O)n3)ccc21 | > 100 | > 100 | > 100 | – | > 100 | > 100 | > 100 | – | > 100 | > 100 | – | – | – | – | – | – | – | – | – | – |
| C(=C/c1nc2ccccc2o1)/c1ccc2c(c1)OCO2 | > 100 | > 70.8 | > 100 | > 100 | 41.9 | 36.3 | > 100 | – | – | > 95.9 | – | – | – | – | – | – | – | – | – | – |
| CCOC(=O)C(C)N1C(=O)c2ccccc2S1(=O)=O (stereo unspecified) | > 100 | > 100 | > 100 | > 100 | > 100 | > 100 | > 100 | – | – | > 100 | > 100 | – | – | – | – | – | – | – | – | – |
| CC(C)=NOC(=O)Nc1cccc2c1OCO2 | > 100 | > 100 | > 100 | > 100 | > 100 | > 100 | > 100 | – | > 100 | > 100 | – | – | – | – | – | – | – | – | – | – |
| COc1ccc(C2=NC(c3ccc(Cl)cc3)C(c3ccc(Cl)cc3)N2C(=O)N2CCNC(=O)C2)c(OC(C)C)c1 (stereo unspecified) | > 10 | 5.57 | 3.82 | > 10 | 6.84 | 4.15 | 3.49 | 5.89 | 3.89 | – | 3.6 | 3.31 | 2.3 | 1.98 | 1.95 | 3.58 | 2.08 | 1.94 | 2.33 | – |
| CC(C)C(NC(=O)C(Cc1ccccc1)NC(=O)[C@H]1CCC[C@H]1NC(=O)C(Cc1ccc(OC(C)(C)C)cc1)NC(=O)OC(C)(C)C)C(N)=O (stereo partly specified) | 36.9 | 30.5 | 38.8 | > 100 | > 100 | 41.6 | 35.2 | > 100 | 49.5 | – | – | – | – | – | – | – | – | – | – | – |
| CCCCCCCCCCCCOP(=O)(O)OP(=O)(O)OCC1OC(n2cc(C)c(=O)[nH]c2=O)CC1O (stereo unspecified) | > 100 | > 100 | > 100 | > 100 | > 100 | > 100 | > 100 | – | > 100 | > 100 | – | – | – | – | – | – | – | – | – | – |
| S=c1nc[nH]c2c1ncn2C1CCCO1 (stereo unspecified) | > 100 | > 100 | > 100 | > 100 | > 100 | > 100 | > 100 | – | – | > 100 | – | – | – | – | – | – | – | – | – | – |
| CC/C(=C\c1ccc(OC)cc1)c1ccc(OC)cc1 | > 100 | > 100 | > 100 | > 100 | > 100 | > 100 | > 100 | – | > 100 | > 100 | – | – | – | – | – | – | – | – | – | – |
| CC(C)(C)C1=C(Br)C(OC(=O)C(F)(F)F)(C(C)(C)C)OP1(=O)c1ccccc1 (stereo unspecified) | 34 | > 100 | > 100 | – | – | > 100 | > 100 | – | – | > 100 | – | – | – | – | – | – | – | – | – | – |
| Cc1ccc(S(=NS(=O)(=O)c2ccc(C)cc2)c2ccc(C)cc2)cc1 | > 100 | – | > 100 | > 100 | > 100 | – | > 100 | > 100 | – | > 100 | – | – | – | – | – | – | – | – | – | – |

| Structure (SMILES) | TGI [1] [µM] | TGI [2] [µM] | TGI [3] [µM] | TGI [4] [µM] | TGI [5] [µM] | TGI [6] [µM] | TGI [7] [µM] | TGI [8] [µM] | TGI [9] [µM] | TGI [10] [µM] | GI50 [5] [µM] | GI50 [1] [µM] | GI50 [2] [µM] | GI50 [9] [µM] | GI50 [3] [µM] | GI50 [4] [µM] | GI50 [6] [µM] | GI50 [7] [µM] | GI50 [8] [µM] | GI50 [10] [µM] |
| --- | --- | --- | --- | --- | --- | --- | --- | --- | --- | --- | --- | --- | --- | --- | --- | --- | --- | --- | --- | --- |
| NS(=O)(=O)c1ccc(N=Nc2ccc(O)c(C(=O)O)c2)cc1 | > 100 | > 100 | > 100 | > 100 | > 100 | > 100 | > 100 | – | > 100 | > 100 | – | – | – | – | – | – | – | – | – | – |
| CC(=O)OCC1OC(n2c(-c3ccccc3)c(N=Nc3ccc(C)cc3)c(C)c(C#N)c2=S)C(OC(C)=O)C(OC(C)=O)C1OC(C)=O (stereo unspecified) | > 100 | > 100 | > 100 | > 100 | 50.7 | 40.9 | 28.9 | > 100 | > 100 | – | – | – | – | – | – | – | – | – | – | – |
| Cc1ccccc1NC(=O)Cc1csc(N=Nc2c(O)[nH]c3ccccc23)n1 | > 100 | – | > 100 | > 100 | 69.5 | > 100 | > 100 | – | > 100 | > 100 | – | – | – | – | – | – | – | – | – | – |
| COc1ccc(-c2n/c(=C\c3c(O)[nH]c4ccccc34)cc3c2=Nc2ccccc2-3)cc1 | – | 3.07 | 3.28 | 6.87 | 2.67 | 2.35 | 5.3 | 3.15 | 2.52 | – | 1.26 | – | 1.52 | 1.13 | 1.68 | 2.35 | 0.795 | 2.03 | 0.518 | – |
| CCCCCCCCCCCCO[P+](=O)OCCCCCCCCCCCC | > 100 | > 100 | > 100 | > 100 | > 100 | > 100 | > 100 | – | > 100 | > 100 | – | – | – | – | – | – | – | – | – | – |
| Cc1csc(-n2c(C)nc3cc(Cl)ccc3c2=O)n1 | > 100 | > 100 | > 100 | – | > 100 | > 100 | > 100 | > 100 | > 100 | – | – | – | – | – | – | – | – | – | – | – |
| O=C(O)c1ccc(N/C(=C(/C(Cl)=C(Cl)Cl)[N+](=O)[O-])n2nnc3ccccc32)cc1 | > 100 | > 100 | > 100 | > 100 | – | > 100 | > 100 | – | > 100 | > 100 | – | – | – | – | – | – | – | – | – | – |
| CCOC(=O)C(C(=O)COC(C)(C)C)[C@@H]1C=C[C@H](OC(C)=O)C1 (stereo partly specified) | > 100 | > 100 | > 100 | > 100 | – | > 100 | > 100 | – | > 100 | > 100 | – | – | – | – | – | – | – | – | – | – |
| COCCN1C(=O)C2c3[nH]c4ccccc4c3C3CCC(C(C)(C)C)CC3C2C1=O (stereo unspecified) | 33.7 | 42.9 | 28 | 39.5 | 43.1 | – | 32.9 | 27 | 36.9 | – | – | – | – | – | – | – | – | – | – | – |
| C=CC[C@H](N=C(SC)SC)C(=O)N1C(=O)N(C)[C@@H](C)[C@H]1c1ccccc1 | > 100 | 92.2 | > 100 | – | > 100 | 91.2 | > 100 | – | > 100 | > 100 | – | – | – | – | – | – | – | – | – | – |
| COc1ccc(-n2cnc3c(NC(Cc4ccccc4)C(=O)O)ncnc32)cc1 (stereo unspecified) | > 100 | > 100 | > 100 | > 100 | – | > 100 | > 100 | > 100 | > 100 | – | – | – | – | – | – | – | – | – | – | – |
| CCOc1cc2c(cc1O)C(N)C[C@@H]1[C@@H]2CC[C@]2(C)[C@@H](O)CC[C@@H]12 (stereo partly specified) | > 100 | > 100 | > 100 | – | > 100 | > 100 | > 100 | 63 | > 100 | – | – | – | – | – | – | – | – | 58.6 | – | – |
| CCOC(=O)C(C/C=C/CO)N(C)C(=O)OC(C)(C)C (stereo unspecified) | > 100 | – | > 100 | > 100 | > 100 | > 100 | > 100 | > 100 | > 100 | – | – | – | – | – | – | – | – | – | – | – |
| C=C(C)[C@@H]1CC[C@]2(CO)CC[C@]3(C)[C@H](CC[C@@H]4[C@@]5(C)CC[C@H](NCO)C(C)(C)[C@@H]5CC[C@]43C)[C@@H]12 | 1.82 | – | 1.79 | 2.5 | 1.57 | 1.83 | 1.5 | – | 1.75 | 1.53 | 0.842 | 0.898 | – | 0.995 | 0.918 | 0.934 | 0.961 | 0.79 | – | 0.792 |
| O=c1cc(N2CCCC2)[nH]c(=O)n1-c1ccc(Cl)cc1 | > 100 | > 100 | > 100 | > 100 | > 100 | > 100 | > 100 | – | > 100 | > 100 | – | – | – | – | – | – | – | – | – | – |
| COC(=O)c1cc(/C=C\c2cc(OC)ccc2OC)ccc1OC | 59.7 | 45.7 | > 100 | 44.5 | – | 74.2 | > 100 | > 100 | > 100 | – | – | – | – | – | – | – | – | – | – | – |
